Patent EP0012543A1, “Compositions containing 1,3-dioxolanes as emollients” (IMPERIAL CHEMICAL INDUSTRIES PLC, priority 1978, dated 1980)

Tested on: skin
Assay: Evaluation of emollients: test lotion rated by a panel
Assay type: in vivo, persons
Method: The following basic composition is prepared:
The emollient to be tested is stirred with the other ingredients of the oil phase while heating to 70°C. Meanwhile, ingredients of the water phase are stirred and heated to 72°C. The water phase is then added gradually to the stirred oil phase, and the total mixture is stirred while it cools to room temperature. The emulsion (lotion or cream) is allowed to age for 48 hours at room temperature before evaluation.
For evaluation the subject applies a small amount of the lotion to the inner arm, rubs it into the skin and rates five characteristics: ease of application, moistness, smoothness, greasiness and tackiness. Numerical values are given as follows: poor = 0, average or "not sure" = 1, and good = 2. This is done by an experienced panel of 10 persons and ratings for each emollient are the mean for the 10 subjects. With this system, the highest possible rating is 10; the average emollient has a rating of 5; and the worst score is zero. Most of the emollients of the present invention have ratings well above 5.
Specific examples of acetals of fatty aldehydes are listed following under the name of the polyol. The aldehyde in each case was the mixed C13 and C15 aldehyde used in Example 1.

[1] = 0-10 scale, five characteristics (ease of application, moistness, smoothness, greasiness, tackiness) each rated 0-2, mean of 10 subjects, 7.0 parts emollient in lotion aged 48 hours, rubbed into inner arm

Compound	Emollient Rating [1]	Emollient Rating (in vivo)
CC(O)CO (centres unmarked) [1,2-Propylene glycol]	8.1	
OCCCO [1,3-Propanediol]	6.3	
OCCO [Ethylene glycol]		8.6
OCC(O)CO [Glycerol]	5.8	
OCC(CO)(CO)CO [Pentaerythritol]	6.3	
